{
  "source": "ChEMBL document CHEMBL1147830",
  "about": "“Isoquinoline-pyridine-based protein kinase B/Akt antagonists: SAR and in vivo antitumor activity” (Bioorg Med Chem Lett, 2006)",
  "key": {"[1]": {"target": "Proto-oncogene tyrosine-protein kinase Src (Homo sapiens, UniProt P12931)", "sequence (P12931 2-536 limits assumed)": "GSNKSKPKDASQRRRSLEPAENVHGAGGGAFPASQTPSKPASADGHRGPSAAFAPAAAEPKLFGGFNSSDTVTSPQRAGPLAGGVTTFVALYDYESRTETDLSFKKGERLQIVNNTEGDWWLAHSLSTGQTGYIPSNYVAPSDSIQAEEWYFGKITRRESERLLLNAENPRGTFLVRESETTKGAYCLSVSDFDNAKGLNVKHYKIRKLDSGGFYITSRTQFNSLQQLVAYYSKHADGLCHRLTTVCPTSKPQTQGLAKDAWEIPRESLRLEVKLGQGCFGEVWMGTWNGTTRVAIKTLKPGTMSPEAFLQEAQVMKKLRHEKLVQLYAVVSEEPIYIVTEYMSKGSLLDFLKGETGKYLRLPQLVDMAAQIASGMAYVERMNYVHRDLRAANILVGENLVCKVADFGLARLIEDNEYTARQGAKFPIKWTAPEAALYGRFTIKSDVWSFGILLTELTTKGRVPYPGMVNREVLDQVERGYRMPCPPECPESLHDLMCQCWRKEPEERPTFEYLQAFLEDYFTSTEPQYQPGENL", "test": "Inhibition of SRC at 5 uM ATP"}, "[2]": {"target": "Protein kinase C gamma type (Homo sapiens, UniProt P05129)", "test": "Inhibition of PKC gamma at 5 uM ATP"}, "[3]": {"target": "Mitogen-activated protein kinase 1 (Homo sapiens, UniProt P28482)", "sequence (P28482 whole entry)": "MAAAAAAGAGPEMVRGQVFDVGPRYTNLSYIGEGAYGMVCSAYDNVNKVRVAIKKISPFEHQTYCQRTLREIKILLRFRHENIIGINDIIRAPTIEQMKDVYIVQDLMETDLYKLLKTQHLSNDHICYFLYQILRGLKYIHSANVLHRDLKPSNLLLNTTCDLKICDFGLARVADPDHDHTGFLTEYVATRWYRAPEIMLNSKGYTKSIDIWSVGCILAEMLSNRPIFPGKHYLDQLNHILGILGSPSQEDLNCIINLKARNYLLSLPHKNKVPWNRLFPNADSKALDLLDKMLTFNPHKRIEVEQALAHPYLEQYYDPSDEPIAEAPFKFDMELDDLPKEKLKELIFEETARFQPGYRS", "test": "Inhibition of ERK2 at 5 uM ATP"}, "[4]": {"target": "RAC-gamma serine/threonine-protein kinase (Homo sapiens, UniProt Q9Y243)", "sequence (Q9Y243 whole entry)": "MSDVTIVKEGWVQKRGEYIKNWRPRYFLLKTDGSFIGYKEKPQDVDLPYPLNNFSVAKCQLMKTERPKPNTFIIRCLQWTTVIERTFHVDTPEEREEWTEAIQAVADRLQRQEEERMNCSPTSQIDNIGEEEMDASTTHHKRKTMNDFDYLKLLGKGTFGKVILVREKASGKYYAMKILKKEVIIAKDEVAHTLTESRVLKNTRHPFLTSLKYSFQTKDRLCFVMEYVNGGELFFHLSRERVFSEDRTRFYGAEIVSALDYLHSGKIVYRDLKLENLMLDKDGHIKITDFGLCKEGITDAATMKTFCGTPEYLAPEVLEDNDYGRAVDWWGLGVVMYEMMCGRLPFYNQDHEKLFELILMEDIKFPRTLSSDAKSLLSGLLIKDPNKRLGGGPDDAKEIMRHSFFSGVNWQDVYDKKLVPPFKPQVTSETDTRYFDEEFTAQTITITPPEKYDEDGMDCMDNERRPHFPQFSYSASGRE", "test": "Inhibition of Akt3 at 5 uM ATP"}, "[5]": {"target": "RAC-beta serine/threonine-protein kinase (Homo sapiens, UniProt P31751)", "sequence (P31751 whole entry)": "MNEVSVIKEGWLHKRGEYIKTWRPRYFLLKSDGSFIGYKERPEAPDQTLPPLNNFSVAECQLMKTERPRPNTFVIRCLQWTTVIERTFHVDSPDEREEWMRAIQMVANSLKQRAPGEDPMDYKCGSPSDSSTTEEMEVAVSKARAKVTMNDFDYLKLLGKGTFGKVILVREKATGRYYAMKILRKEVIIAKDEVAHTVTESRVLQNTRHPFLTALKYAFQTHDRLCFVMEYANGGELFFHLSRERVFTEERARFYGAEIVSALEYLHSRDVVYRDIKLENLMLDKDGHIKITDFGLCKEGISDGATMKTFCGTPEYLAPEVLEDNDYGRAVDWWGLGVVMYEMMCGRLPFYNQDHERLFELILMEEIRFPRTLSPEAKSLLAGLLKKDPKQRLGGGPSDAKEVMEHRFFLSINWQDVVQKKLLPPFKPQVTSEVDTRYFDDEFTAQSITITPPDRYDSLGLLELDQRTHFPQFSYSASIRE", "test": "Inhibition of Akt2 at 5 uM ATP"}, "[6]": {"target": "T1, Protein kinase C epsilon type (Homo sapiens, UniProt Q02156)", "T1 sequence (Q02156 whole entry)": "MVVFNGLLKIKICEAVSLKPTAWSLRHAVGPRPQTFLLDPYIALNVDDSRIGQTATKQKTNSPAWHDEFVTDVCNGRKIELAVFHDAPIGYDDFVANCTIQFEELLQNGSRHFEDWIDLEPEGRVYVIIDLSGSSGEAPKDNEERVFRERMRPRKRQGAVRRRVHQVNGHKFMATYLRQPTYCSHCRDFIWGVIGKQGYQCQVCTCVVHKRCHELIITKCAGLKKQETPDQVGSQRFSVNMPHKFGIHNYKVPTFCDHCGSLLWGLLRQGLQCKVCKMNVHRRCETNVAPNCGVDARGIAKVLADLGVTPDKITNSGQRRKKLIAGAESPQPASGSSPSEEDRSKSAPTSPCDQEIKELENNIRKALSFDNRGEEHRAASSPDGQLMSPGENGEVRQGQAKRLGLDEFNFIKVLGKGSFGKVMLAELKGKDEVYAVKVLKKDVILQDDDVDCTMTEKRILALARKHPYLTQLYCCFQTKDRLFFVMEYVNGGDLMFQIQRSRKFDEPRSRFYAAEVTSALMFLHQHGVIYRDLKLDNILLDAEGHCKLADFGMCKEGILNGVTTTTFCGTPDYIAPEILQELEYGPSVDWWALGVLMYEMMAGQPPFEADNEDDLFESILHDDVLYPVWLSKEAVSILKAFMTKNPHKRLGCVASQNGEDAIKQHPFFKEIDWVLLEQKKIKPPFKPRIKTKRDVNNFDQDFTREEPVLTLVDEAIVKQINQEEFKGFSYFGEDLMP", "test": "Inhibition of PKC epsilon at 5 uM ATP"}, "[7]": {"target": "Cyclin-dependent kinase 1 (Homo sapiens, UniProt P06493)", "sequence (P06493 whole entry)": "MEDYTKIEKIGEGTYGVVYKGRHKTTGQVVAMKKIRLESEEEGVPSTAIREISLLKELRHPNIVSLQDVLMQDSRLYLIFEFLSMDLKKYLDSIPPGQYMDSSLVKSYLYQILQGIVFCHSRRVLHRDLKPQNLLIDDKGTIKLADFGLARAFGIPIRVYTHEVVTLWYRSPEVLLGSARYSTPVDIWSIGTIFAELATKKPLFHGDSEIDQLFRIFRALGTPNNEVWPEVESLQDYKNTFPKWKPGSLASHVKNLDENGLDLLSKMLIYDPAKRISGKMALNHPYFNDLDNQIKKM", "test": "Inhibition of CDK1 at 5 uM ATP"}, "Casein kinase II": {"target": "Casein kinase II (Homo sapiens, UniProt P19784+P67870+P68400)", "sequence (P67870 whole entry)": "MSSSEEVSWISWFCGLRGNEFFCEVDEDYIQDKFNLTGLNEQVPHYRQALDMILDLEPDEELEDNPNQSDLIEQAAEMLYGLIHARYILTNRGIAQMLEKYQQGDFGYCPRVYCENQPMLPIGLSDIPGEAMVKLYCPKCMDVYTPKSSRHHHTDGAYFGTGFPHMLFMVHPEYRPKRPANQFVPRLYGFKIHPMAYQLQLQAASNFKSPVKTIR", "sequence (P68400 whole entry)": "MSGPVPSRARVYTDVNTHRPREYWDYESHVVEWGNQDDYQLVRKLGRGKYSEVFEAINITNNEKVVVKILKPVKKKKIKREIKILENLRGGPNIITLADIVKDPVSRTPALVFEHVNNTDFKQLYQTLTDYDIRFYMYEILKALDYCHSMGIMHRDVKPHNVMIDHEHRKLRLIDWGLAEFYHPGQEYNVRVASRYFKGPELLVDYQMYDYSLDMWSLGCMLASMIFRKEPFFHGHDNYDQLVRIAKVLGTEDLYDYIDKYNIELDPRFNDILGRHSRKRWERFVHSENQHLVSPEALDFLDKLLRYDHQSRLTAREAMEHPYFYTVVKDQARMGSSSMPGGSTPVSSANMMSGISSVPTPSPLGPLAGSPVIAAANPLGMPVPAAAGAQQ", "sequence (P19784 whole entry)": "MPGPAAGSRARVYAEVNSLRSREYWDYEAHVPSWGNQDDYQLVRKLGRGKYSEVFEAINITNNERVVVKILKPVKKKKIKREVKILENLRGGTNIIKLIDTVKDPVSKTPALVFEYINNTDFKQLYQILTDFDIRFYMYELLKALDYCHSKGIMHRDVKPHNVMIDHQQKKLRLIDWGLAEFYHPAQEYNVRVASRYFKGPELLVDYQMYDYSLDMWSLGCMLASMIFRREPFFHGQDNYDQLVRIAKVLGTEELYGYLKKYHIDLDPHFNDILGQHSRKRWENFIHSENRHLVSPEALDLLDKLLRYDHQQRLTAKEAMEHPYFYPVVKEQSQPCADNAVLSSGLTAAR", "test": "Inhibition of CK2 at 5 uM ATP", "type": "protein-complex assay"}, "[8]": {"target": "cAMP-dependent protein kinase (PKA) (Homo sapiens, UniProt P22694+P17612+P22612)", "test": "Inhibition of PKA at 5 uM ATP", "type": "protein assay"}, "MIA PaCa-2": {"test_system": "MIA PaCa-2", "test": "Antiproliferative activity against human MiaPaCa2 cells by MTT assay", "type": "functional, cell-based"}, "[9]": {"test": "Bioavailability in CD1 mouse at 10 mg/kg, po", "type": "ADME, organism-based", "details": "in vivo"}, "[10]": {"test": "Half life in CD1 mouse at 3 mg/kg, iv", "type": "ADME, organism-based", "design": "dose 3 mg/kg, route intravenous", "details": "in vivo"}, "[11]": {"test": "AUC in CD1 mouse at 10 mg/kg, po", "type": "ADME, organism-based", "design": "dose 10 mg/kg, route oral", "details": "plasma"}, "[12]": {"test": "Volume of distribution in CD1 mouse at 3 mg/kg, iv or 10 mg/kg, po or 30 mg, sc", "type": "ADME, organism-based", "details": "in vivo, read-out: Vdss"}, "[13]": {"test": "Clearance in CD1 mouse at 3 mg/kg, iv or 10 mg/kg, po or 30 mg, sc", "type": "ADME, organism-based", "design": "unit not given here", "details": "in vivo"}, "[14]": {"test": "AUC in CD1 mouse at 30 mg, sc", "type": "ADME, organism-based", "details": "plasma"}, "[15]": {"target": "RAC-alpha serine/threonine-protein kinase (Homo sapiens, UniProt P31749)", "sequence (P31749 whole entry)": "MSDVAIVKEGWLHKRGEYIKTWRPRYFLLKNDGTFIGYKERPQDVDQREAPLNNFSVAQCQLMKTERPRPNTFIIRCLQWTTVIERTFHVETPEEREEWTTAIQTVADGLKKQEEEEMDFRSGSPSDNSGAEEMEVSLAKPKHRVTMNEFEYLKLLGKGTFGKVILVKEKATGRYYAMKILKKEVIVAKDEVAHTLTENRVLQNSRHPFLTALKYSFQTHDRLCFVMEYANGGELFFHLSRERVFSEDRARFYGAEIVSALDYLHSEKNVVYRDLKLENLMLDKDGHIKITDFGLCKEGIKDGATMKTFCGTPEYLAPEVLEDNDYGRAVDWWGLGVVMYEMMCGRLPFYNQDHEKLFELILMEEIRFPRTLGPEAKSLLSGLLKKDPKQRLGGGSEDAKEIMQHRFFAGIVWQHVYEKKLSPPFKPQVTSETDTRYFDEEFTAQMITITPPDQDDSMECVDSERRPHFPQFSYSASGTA", "test": "Inhibition of GSK3 phosphorylation", "type": "functional"}, "[16]": {"test": "Antiproliferative activity against mouse FL5.12 cells overexpressing Akt1 by MTT assay"}},
  "data": [
    {"smiles": "C#Cc1ncc(OC[C@@H](N)Cc2c[nH]c3ccccc23)cc1-c1ccc2cnccc2c1", "values": [
      {"measurement": "IC50", "setting": "[1]", "result": "> 50", "unit": "µM"},
      {"measurement": "IC50", "setting": "[2]", "result": 0.26, "unit": "µM"},
      {"measurement": "IC50", "setting": "[3]", "result": 27.2, "unit": "µM"},
      {"measurement": "IC50", "setting": "[4]", "result": 0.039, "unit": "µM"},
      {"measurement": "IC50", "setting": "[5]", "result": 0.005, "unit": "µM"},
      {"measurement": "IC50", "setting": "[6]", "result": 8.9, "unit": "µM"},
      {"measurement": "IC50", "setting": "[7]", "result": 4.9, "unit": "µM"},
      {"measurement": "IC50", "setting": "Casein kinase II", "result": "> 50", "unit": "µM"},
      {"measurement": "IC50", "setting": "[8]", "result": 0.001, "unit": "µM"},
      {"measurement": "IC50", "setting": "MIA PaCa-2", "result": 10.8, "unit": "µM"}
    ]},
    {"smiles": "N[C@H](COc1cncc(-c2ccc3c(Cl)nccc3c2)c1)Cc1c[nH]c2ccccc12", "values": [
      {"measurement": "bioavailability", "setting": "[9]", "result": 51, "unit": "%"},
      {"measurement": "half-life", "setting": "[10]", "result": 5, "unit": "h"},
      {"measurement": "AUC", "setting": "[11]", "result": 3900, "unit": "ng·h/mL"},
      {"measurement": "Vd", "setting": "[12]", "result": 9.5, "unit": "L/kg"},
      {"measurement": "clearance", "setting": "[13]", "result": 21.7}
    ]},
    {"smiles": "Cc1cc(-c2cncc(OC[C@@H](N)Cc3c[nH]c4ccccc34)c2)cc2ccncc12", "values": [
      {"measurement": "bioavailability", "setting": "[9]", "result": 35, "unit": "%"},
      {"measurement": "half-life", "setting": "[10]", "result": 4.5, "unit": "h"},
      {"measurement": "AUC", "setting": "[11]", "result": 1500, "unit": "ng·h/mL"},
      {"measurement": "Vd", "setting": "[12]", "result": 16.4, "unit": "L/kg"},
      {"measurement": "clearance", "setting": "[13]", "result": 41.7}
    ]},
    {"smiles": "N[C@H](COc1cncc(-c2ccc3cnc(F)cc3c2)c1)Cc1c[nH]c2ccccc12", "values": [
      {"measurement": "IC50", "setting": "[1]", "result": 18, "unit": "µM"},
      {"measurement": "IC50", "setting": "[7]", "result": 3.4, "unit": "µM"},
      {"measurement": "IC50", "setting": "[8]", "result": 0.048, "unit": "µM"},
      {"measurement": "IC50", "setting": "MIA PaCa-2", "result": 3.18, "unit": "µM"}
    ]},
    {"smiles": "Nc1cc2cc(-c3cncc(OC[C@@H](N)Cc4c[nH]c5ccccc45)c3)ccc2cn1", "values": [
      {"measurement": "AUC", "setting": "[14]", "result": 6900, "unit": "ng·h/mL"},
      {"measurement": "bioavailability", "setting": "[9]", "result": 0, "unit": "%"},
      {"measurement": "half-life", "setting": "[10]", "result": 0.7, "unit": "h"},
      {"measurement": "IC50", "setting": "[1]", "result": 0.48, "unit": "µM"},
      {"measurement": "IC50", "setting": "[2]", "result": 0.031, "unit": "µM"},
      {"measurement": "IC50", "setting": "[3]", "result": 1.2, "unit": "µM"},
      {"measurement": "Vd", "setting": "[12]", "result": 11.8, "unit": "L/kg"},
      {"measurement": "IC50", "setting": "[4]", "result": 0.076, "unit": "µM"},
      {"measurement": "IC50", "setting": "[5]", "result": 0.021, "unit": "µM"},
      {"measurement": "IC50", "setting": "[6]", "result": 8.3, "unit": "µM"},
      {"measurement": "IC50", "setting": "[7]", "result": 0.022, "unit": "µM"},
      {"measurement": "IC50", "setting": "Casein kinase II", "result": 0.62, "unit": "µM"},
      {"measurement": "IC50", "setting": "[15]", "result": 0.93, "unit": "µM"},
      {"measurement": "clearance", "setting": "[13]", "result": 202},
      {"measurement": "IC50", "setting": "[8]", "result": 0.008, "unit": "µM"},
      {"measurement": "IC50", "setting": "MIA PaCa-2", "result": 0.1, "unit": "µM"}
    ]},
    {"smiles": "N[C@H](COc1cncc(-c2ccc3cnc(Cl)cc3c2)c1)Cc1c[nH]c2ccccc12", "values": [
      {"measurement": "bioavailability", "setting": "[9]", "result": 27, "unit": "%"},
      {"measurement": "half-life", "setting": "[10]", "result": 2, "unit": "h"},
      {"measurement": "AUC", "setting": "[11]", "result": 910, "unit": "ng·h/mL"},
      {"measurement": "Vd", "setting": "[12]", "result": 15.5, "unit": "L/kg"},
      {"measurement": "clearance", "setting": "[13]", "result": 90}
    ]},
    {"smiles": "N[C@H](COc1cnc(Cl)c(-c2ccc3cnccc3c2)c1)Cc1c[nH]c2ccccc12", "values": [
      {"measurement": "IC50", "setting": "[1]", "result": 12.1, "unit": "µM"},
      {"measurement": "IC50", "setting": "[2]", "result": 0.54, "unit": "µM"},
      {"measurement": "IC50", "setting": "[3]", "result": 37, "unit": "µM"},
      {"measurement": "IC50", "setting": "[4]", "result": 0.073, "unit": "µM"},
      {"measurement": "IC50", "setting": "[5]", "result": 0.005, "unit": "µM"},
      {"measurement": "IC50", "setting": "[6]", "result": "> 5", "unit": "µM"},
      {"measurement": "IC50", "setting": "[7]", "result": 0.87, "unit": "µM"},
      {"measurement": "IC50", "setting": "Casein kinase II", "result": 12.7, "unit": "µM"},
      {"measurement": "IC50", "setting": "[15]", "result": 3, "unit": "µM"},
      {"measurement": "IC50", "setting": "[8]", "result": 0.005, "unit": "µM"},
      {"measurement": "IC50", "setting": "MIA PaCa-2", "result": 13.3, "unit": "µM"}
    ]},
    {"smiles": "N[C@H](COc1cncc(-c2ccc3cnccc3c2)c1)Cc1c[nH]c2ccccc12", "values": [
      {"measurement": "AUC", "setting": "[14]", "result": 7600, "unit": "ng·h/mL"},
      {"measurement": "bioavailability", "setting": "[9]", "result": 0, "unit": "%"},
      {"measurement": "half-life", "setting": "[10]", "result": 0.3, "unit": "h"},
      {"measurement": "IC50", "setting": "[1]", "result": 2, "unit": "µM"},
      {"measurement": "Vd", "setting": "[12]", "result": 7, "unit": "L/kg"},
      {"measurement": "IC50", "setting": "[16]", "result": 0.42, "unit": "µM"},
      {"measurement": "IC50", "setting": "[6]", "result": 6.1, "unit": "µM"},
      {"measurement": "IC50", "setting": "[15]", "result": 1.5, "unit": "µM"}
    ]}
  ]
}
